From ChEMBL document CHEMBL5727040, “Factor XIa inhibitors” (2018)

Tests used:
Plasma kallikrein = Plasma kallikrein (Homo sapiens, UniProt P03952); test: Kallikrein Assay: The effectiveness of a compound of the present invention as an inhibitor of Kallikrein can be determined using a relevant purified serine protease, and an appropriate synthetic substrate. The rate of hydrolysis of the chromogenic or fluorogenic substrate by the relevant serine protease was measured both in the absence and presence of compounds of the present invention. Assays were conducted at room temperature or at 37° C. […] A decrease in the rate of fluorescence change in the presence of inhibitor is indicative of enzyme inhibition. Such methods are known to one skilled in the art. […] Times required to achieve equilibration between enzyme and inhibitor were determined in control experiments. The reactions were performed under linear progress curve conditions and fluorescence increase measured at 405 Ex/510 Em nm. […] IC50 was determined by inflection point from a four parameter logistic curve fit. Ki was calculated using the Cheng Prusoff equation, Ki=IC50/(1+([S]/Km)).
Coagulation factor XI = Coagulation factor XI (Homo sapiens, UniProt P03951); test: Inhibition Assay: Factor XIa determinations were made in 50 mM HEPES buffer at pH 7.4 containing 150 mM NaCl, 5 mM CaCl2, and 0.1% PEG 8000 (polyethylene glycol; JT Baker or Fisher Scientific). Determinations were made using purified human Factor XIa at a final concentration of 40 pM (Sekisui Diagnostics) and the synthetic substrate, Z-Gly-Pro-Arg-AFC, TFA salt (Sigma #C0980) at a concentration of 100 μM.
Coagulation factor XI, sequence (P03951 19-387 limits assumed): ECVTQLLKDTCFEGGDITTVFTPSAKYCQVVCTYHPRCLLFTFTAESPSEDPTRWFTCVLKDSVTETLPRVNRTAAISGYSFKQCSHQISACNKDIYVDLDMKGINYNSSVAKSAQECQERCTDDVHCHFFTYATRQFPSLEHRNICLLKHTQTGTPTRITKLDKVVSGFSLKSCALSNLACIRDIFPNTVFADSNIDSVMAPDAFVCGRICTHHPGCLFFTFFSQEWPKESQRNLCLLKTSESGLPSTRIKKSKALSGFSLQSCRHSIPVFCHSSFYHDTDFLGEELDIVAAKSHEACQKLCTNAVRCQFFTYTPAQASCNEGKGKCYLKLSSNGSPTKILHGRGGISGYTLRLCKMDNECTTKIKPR
Coagulation factor XI, sequence (P03951 388-625 limits assumed): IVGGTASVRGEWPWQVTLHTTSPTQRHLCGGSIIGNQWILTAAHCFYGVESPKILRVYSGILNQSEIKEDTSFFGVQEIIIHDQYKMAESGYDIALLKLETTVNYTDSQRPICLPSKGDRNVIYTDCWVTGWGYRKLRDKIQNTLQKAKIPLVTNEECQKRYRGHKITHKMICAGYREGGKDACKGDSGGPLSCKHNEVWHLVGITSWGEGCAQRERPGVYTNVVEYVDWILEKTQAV

Plasma kallikrein, sequence (P03952 20-390 limits assumed): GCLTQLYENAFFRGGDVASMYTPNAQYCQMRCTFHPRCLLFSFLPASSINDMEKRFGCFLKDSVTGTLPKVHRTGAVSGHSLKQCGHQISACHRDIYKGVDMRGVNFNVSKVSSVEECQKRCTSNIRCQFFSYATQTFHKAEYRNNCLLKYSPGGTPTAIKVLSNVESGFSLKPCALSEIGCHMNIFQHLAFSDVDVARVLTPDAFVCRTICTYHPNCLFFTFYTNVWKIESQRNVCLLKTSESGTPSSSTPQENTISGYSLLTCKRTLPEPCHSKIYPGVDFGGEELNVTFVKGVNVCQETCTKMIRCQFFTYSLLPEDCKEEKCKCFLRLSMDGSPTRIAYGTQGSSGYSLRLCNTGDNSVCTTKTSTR
Plasma kallikrein, sequence (P03952 391-638 limits assumed): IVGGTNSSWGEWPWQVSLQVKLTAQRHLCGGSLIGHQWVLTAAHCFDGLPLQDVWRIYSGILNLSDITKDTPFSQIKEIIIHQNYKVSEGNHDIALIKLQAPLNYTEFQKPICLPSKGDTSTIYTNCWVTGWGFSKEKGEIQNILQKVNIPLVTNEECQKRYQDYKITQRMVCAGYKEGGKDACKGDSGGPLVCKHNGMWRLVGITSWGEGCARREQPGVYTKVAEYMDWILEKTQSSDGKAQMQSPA

## O=C(NC1CC=CC1)N1CCC(c2cccc([C@H](Cc3ccccc3)c3ccc(-c4cc(Cl)ccc4-n4cnnn4)c[n+]3[O-])c2)CC1
Plasma kallikrein
  IC50: 696 nM
Coagulation factor XI
  IC50: 18.5 nM
